Assay results from BindingDB's records for patent US20240018151 (Tme Therapeutics, 2024).

Target: 1-phosphatidylinositol 3-phosphate 5-kinase (Homo sapiens, UniProt Q9Y2I7)
Assay: ADP-GLO Kinase Assay
Procedure: Briefly, 4 compound solution and 4 ATP solution are prepared with assay buffer (50 mM MOPS, 1 mM DTT, pH7.2). 4 Substrate solution and 4 kinase/Metal solution are prepared with MOPS based buffer containing individual kinase specific additives. Then, […], 5 μL of 4 Substrate solution, 5 μL of 4 ATP solution, and 5 μL of 4 kinase/Metal solution are mixed and incubated in a well of polystyrene 384 well black microplate for 1 hour at room temperature. Next, 20 μL of ADP-Glo Reagent (Promega) is added to the well,and incubated for over 40 minutes. 40 μL of Kinase Detection Reagent (Promega) is added to the well, and incubated for over 40 minutes. The kinase reaction is evaluated by the endpoint luminescence of the well. For measurement of PIKFYVE activity, the substrate is PI3P at 10,000 nM concentration, using AG-182 as a positive control. The metal used is magnesium at 5 mM concentration.

1-phosphatidylinositol 3-phosphate 5-kinase, sequence (Q9Y2I7 whole entry): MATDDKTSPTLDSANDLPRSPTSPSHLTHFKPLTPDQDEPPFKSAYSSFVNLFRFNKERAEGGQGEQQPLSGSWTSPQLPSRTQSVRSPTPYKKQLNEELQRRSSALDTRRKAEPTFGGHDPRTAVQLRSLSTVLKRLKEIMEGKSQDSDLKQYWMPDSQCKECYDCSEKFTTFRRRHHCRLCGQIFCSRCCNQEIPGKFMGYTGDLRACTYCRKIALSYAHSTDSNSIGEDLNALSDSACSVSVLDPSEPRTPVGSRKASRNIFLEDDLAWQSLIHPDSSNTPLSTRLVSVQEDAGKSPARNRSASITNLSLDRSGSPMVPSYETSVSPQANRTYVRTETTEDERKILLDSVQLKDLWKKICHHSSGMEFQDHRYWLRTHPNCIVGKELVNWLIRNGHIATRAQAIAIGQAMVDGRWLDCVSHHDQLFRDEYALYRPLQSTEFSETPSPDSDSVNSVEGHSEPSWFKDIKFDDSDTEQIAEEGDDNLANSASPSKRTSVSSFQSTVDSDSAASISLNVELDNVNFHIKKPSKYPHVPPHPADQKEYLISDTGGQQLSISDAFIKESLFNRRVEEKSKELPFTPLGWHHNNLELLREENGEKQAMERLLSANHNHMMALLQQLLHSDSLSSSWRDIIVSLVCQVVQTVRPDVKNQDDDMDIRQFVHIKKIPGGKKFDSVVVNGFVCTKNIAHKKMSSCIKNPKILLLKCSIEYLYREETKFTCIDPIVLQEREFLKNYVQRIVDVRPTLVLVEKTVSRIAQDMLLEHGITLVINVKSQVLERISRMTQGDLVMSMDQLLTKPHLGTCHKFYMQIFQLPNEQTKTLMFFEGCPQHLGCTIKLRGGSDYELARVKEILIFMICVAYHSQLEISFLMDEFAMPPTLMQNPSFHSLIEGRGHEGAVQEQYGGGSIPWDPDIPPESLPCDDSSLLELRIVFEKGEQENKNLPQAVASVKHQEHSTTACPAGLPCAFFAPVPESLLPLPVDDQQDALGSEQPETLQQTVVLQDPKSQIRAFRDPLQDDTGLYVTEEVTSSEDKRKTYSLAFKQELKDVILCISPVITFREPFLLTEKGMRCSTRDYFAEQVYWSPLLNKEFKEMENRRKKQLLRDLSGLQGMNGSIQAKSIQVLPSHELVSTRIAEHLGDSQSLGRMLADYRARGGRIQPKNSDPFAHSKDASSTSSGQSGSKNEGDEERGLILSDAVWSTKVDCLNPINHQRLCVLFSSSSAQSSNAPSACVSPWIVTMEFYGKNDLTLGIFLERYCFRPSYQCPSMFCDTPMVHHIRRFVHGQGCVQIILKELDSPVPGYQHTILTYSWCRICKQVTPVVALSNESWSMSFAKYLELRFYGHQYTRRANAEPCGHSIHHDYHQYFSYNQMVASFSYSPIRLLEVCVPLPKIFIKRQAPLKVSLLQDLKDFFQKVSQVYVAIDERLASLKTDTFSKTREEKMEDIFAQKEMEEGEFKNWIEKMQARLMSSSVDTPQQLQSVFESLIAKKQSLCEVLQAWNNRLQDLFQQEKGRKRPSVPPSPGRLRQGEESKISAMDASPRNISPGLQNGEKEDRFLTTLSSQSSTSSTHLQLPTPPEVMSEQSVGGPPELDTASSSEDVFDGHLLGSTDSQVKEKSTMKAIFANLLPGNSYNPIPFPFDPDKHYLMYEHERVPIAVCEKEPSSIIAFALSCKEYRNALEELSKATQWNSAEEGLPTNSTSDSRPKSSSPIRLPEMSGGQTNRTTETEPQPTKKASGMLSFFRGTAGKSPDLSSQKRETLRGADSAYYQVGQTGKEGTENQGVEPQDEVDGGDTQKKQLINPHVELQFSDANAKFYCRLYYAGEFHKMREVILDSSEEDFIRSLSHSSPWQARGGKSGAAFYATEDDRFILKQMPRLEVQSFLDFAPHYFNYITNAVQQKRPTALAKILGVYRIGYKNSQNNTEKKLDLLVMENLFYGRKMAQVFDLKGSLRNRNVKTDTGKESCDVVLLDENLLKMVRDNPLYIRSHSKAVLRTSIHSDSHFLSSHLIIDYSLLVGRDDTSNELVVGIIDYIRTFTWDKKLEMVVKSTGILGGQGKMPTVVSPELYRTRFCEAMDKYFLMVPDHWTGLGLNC

- IC50: < 50 nM
Structure (SMILES): Brc1cccc(-c2ccn(-c3cc(N4CCOCC4)n4nc(-c5ccncc5)cc4n3)n2)c1 [US20240018151, Example 3]
